# Experimental data taken from patent publication US12365696B2, “Small-molecule focal adhesion kinase (FAK) inhibitors” (DANA-FARBER CANCER INSTITUTE, INC., priority 2019, dated 2025).
# Key:
# Experiment in all cases: KINOMEscan
# Type in all cases: binding
# p38-gamma = p38-gamma (Homo sapiens (Human), UniProt P53778); conditions: 10000 nM, read-out: Percent Control
# FLT1 = FLT1 (Homo sapiens (Human), UniProt P17948); conditions: FLT1, 10000 nM; read-out: Percent Control
# NEK3 = NEK3 (Homo sapiens (Human), UniProt P51956); conditions: NEK3, 10000 nM; read-out: Percent Control
# ASK2 = ASK2 (Homo sapiens (Human), UniProt O95382); conditions: ASK2, 10000 nM; read-out: Percent Control
# [1] = target: RPS6KA4(Kin.Dom.1-N-terminal) (Homo sapiens (Human), UniProt O75676); conditions: 10000 nM, read-out: Percent Control
# RIPK2 = RIPK2 (Homo sapiens (Human), UniProt O43353); conditions: RIPK2, 10000 nM; read-out: Percent Control
# MYLK2 = MYLK2 (Homo sapiens (Human), UniProt Q9H1R3); conditions: MYLK2, 10000 nM; read-out: Percent Control
# DMPK = DMPK (Homo sapiens (Human), UniProt Q09013); conditions: 10000 nM, read-out: Percent Control
# KIT(V559D) = KIT(V559D) (Homo sapiens (Human), UniProt P10721, V559D); conditions: 10000 nM, read-out: Percent Control
# Chain of KIT(V559D) (P10721 26-976 V559D): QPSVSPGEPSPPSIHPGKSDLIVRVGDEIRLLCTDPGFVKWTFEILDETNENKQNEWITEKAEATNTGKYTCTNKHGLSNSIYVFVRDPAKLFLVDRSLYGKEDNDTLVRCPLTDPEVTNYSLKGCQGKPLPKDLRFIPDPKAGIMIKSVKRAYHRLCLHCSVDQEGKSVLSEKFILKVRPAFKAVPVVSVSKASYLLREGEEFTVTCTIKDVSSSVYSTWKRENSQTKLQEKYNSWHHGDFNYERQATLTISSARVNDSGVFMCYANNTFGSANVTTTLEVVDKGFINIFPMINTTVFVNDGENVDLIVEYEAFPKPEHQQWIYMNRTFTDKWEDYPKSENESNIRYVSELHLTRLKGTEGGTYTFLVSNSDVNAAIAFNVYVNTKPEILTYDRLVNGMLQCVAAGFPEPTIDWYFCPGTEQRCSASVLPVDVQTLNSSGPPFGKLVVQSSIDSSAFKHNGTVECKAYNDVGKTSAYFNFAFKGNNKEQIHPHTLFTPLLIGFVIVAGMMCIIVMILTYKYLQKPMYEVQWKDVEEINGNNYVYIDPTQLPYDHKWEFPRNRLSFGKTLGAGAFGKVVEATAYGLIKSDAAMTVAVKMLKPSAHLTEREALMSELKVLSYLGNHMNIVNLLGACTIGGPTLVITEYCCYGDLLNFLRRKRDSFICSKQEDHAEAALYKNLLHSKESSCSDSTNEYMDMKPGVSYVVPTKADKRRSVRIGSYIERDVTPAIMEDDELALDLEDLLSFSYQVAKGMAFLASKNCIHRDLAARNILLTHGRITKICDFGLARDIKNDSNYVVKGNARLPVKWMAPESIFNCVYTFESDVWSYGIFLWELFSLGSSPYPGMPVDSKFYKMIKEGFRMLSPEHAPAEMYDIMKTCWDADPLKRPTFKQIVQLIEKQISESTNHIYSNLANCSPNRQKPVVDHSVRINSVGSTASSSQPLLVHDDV
# KIT(D816H) = KIT(D816H) (Homo sapiens (Human), UniProt P10721, D816H); conditions: 10000 nM, read-out: Percent Control
# Chain of KIT(D816H) (P10721 26-976 D816H): as the sequence (P10721 26-976 V559D) above, with D534V, D791H counted along it
# ROCK1 = ROCK1 (Homo sapiens (Human), UniProt Q13464); conditions: ROCK1, 10000 nM; read-out: Percent Control
# MST1R = MST1R (Homo sapiens (Human), UniProt Q04912); conditions: 10000 nM, read-out: Percent Control
# INSR = INSR (Homo sapiens (Human), UniProt P06213); conditions: 10000 nM, read-out: Percent Control
# [2] = target: ABL1(T315I)-nonphosphorylated (Homo sapiens (Human), UniProt P00519, T315I); conditions: 10000 nM, read-out: Percent Control
# CSNK1E = CSNK1E (Homo sapiens (Human), UniProt P49674); conditions: 10000 nM, read-out: Percent Control
# Chain of CSNK1E (P49674 whole entry): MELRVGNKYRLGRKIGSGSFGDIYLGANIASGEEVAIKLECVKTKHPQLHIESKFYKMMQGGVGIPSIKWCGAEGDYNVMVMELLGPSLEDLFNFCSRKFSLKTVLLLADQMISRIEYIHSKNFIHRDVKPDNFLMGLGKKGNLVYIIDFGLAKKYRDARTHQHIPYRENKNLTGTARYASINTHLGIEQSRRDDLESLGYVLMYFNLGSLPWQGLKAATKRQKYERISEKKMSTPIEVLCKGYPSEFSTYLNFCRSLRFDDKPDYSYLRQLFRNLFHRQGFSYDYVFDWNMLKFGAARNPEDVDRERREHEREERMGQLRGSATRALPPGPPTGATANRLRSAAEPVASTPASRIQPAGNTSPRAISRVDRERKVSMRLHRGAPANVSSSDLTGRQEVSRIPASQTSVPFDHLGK
# HIPK4 = HIPK4 (Homo sapiens (Human), UniProt Q8NE63); conditions: HIPK4, 10000 nM; read-out: Percent Control
# YSK1 = YSK1 (Homo sapiens (Human), UniProt O00506); conditions: YSK1, 10000 nM; read-out: Percent Control
# AKT3 = AKT3 (Homo sapiens (Human), UniProt Q9Y243); conditions: AKT3, 10000 nM; read-out: Percent Control
# Chain of AKT3 (Q9Y243 whole entry): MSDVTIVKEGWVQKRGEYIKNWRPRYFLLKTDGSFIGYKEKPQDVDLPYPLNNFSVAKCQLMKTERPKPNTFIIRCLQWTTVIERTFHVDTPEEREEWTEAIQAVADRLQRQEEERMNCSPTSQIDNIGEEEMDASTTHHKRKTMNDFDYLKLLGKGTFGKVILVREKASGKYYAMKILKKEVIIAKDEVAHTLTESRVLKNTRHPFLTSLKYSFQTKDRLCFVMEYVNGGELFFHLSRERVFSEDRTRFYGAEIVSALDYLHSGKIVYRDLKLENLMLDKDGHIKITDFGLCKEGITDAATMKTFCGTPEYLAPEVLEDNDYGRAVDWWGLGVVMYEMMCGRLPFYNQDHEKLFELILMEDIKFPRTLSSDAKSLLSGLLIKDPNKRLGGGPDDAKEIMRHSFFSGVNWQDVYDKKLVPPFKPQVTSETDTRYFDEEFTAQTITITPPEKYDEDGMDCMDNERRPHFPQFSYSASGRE
# ERBB4 = ERBB4 (Homo sapiens (Human), UniProt Q15303); conditions: ERBB4, 10000 nM; read-out: Percent Control
# Chain of ERBB4 (Q15303 26-1308): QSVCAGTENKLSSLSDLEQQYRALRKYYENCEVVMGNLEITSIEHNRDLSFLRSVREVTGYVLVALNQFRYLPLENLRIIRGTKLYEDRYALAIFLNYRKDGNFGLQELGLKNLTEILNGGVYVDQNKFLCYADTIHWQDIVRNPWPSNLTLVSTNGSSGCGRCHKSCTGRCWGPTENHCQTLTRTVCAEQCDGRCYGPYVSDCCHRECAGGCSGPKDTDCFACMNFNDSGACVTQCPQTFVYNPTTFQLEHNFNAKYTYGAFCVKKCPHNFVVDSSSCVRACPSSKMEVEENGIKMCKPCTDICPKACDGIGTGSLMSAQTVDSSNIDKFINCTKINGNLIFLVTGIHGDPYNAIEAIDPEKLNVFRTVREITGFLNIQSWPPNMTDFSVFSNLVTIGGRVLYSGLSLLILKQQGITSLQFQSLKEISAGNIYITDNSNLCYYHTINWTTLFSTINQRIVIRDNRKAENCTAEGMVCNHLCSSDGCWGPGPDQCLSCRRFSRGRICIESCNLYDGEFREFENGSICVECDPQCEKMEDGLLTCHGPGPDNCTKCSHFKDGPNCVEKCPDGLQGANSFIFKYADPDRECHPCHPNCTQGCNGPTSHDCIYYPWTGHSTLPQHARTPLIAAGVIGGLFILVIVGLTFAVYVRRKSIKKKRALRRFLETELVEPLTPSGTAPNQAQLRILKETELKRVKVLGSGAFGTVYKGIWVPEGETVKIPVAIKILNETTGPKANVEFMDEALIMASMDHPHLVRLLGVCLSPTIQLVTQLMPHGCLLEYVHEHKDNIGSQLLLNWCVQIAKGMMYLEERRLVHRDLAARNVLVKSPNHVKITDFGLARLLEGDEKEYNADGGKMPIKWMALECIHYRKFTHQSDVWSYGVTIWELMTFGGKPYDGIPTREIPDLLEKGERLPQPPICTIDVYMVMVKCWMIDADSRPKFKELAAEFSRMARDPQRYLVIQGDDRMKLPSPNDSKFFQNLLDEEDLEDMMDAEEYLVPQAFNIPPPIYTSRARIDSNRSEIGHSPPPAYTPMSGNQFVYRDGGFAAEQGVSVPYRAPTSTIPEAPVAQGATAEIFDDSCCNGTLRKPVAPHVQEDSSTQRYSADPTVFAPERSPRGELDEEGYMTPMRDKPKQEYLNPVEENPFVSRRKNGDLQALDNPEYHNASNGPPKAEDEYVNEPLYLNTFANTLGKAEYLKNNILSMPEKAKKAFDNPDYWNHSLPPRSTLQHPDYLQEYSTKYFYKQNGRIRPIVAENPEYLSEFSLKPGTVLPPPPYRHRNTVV
# SRPK2 = SRPK2 (Homo sapiens (Human), UniProt P78362); conditions: SRPK2, 10000 nM; read-out: Percent Control
# TAK1 = TAK1 (Homo sapiens (Human), UniProt O43318); conditions: TAK1, 10000 nM; read-out: Percent Control
# Chain of TAK1 (O43318 whole entry): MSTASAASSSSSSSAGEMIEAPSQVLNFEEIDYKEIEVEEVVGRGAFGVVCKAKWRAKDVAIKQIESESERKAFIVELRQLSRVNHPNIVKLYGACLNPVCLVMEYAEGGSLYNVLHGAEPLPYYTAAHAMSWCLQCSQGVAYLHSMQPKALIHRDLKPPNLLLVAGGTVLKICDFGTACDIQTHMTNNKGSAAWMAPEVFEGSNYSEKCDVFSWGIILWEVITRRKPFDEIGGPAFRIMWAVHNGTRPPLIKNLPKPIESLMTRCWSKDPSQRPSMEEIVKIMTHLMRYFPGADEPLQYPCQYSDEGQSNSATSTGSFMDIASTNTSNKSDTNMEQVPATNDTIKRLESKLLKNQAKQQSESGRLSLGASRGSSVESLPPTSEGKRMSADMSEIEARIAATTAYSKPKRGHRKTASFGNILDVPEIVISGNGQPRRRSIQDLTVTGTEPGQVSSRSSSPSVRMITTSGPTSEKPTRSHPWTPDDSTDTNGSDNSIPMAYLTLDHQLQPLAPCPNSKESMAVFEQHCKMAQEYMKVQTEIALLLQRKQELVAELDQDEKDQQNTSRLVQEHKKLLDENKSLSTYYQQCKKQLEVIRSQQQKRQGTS
# NDR1 = NDR1 (Homo sapiens (Human), UniProt Q15208); conditions: NDR1, 10000 nM; read-out: Percent Control
# CAMK2G = CAMK2G (Homo sapiens (Human), UniProt Q13555); conditions: 10000 nM, read-out: Percent Control
# [3] = target: ABL1(F317L)-nonphosphorylated (Homo sapiens (Human), UniProt P00519, F317L); conditions: 10000 nM, read-out: Percent Control
# CLK4 = CLK4 (Homo sapiens (Human), UniProt Q9HAZ1); conditions: CLK4, 10000 nM; read-out: Percent Control
# PIK3CA(H1047L) = PIK3CA(H1047L) (Homo sapiens (Human), UniProt P42336, H1047L); conditions: 10000 nM, read-out: Percent Control
# Chain of PIK3CA(H1047L) (P42336 whole entry H1047L): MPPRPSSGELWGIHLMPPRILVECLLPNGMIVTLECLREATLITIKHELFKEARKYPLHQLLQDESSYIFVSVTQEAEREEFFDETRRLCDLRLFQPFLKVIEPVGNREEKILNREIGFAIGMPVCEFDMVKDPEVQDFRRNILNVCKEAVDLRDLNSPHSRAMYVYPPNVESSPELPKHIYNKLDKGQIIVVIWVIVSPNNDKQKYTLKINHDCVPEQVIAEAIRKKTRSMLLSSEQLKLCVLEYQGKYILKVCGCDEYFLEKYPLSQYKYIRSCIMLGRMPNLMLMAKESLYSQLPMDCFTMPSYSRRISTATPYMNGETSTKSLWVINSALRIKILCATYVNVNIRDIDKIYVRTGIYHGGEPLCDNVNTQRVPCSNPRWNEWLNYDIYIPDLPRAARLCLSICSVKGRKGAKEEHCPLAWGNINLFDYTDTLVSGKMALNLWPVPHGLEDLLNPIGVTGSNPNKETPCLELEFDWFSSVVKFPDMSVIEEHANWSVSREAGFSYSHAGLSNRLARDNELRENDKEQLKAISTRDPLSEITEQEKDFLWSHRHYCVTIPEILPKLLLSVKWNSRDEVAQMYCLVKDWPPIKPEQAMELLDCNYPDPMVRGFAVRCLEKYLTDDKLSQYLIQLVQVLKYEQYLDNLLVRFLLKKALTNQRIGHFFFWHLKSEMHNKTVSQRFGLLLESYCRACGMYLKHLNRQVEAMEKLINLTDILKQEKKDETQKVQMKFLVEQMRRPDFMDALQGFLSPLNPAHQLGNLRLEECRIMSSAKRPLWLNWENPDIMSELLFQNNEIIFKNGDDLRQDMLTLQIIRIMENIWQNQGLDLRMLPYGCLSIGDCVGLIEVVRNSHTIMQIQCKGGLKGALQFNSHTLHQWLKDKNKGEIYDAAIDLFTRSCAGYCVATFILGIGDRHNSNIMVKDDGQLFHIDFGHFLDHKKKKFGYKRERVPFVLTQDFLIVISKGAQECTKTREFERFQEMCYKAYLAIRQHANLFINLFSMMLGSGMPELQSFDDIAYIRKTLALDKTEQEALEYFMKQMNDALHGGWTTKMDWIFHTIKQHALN
# FES = FES (Homo sapiens (Human), UniProt P07332); conditions: 10000 nM, read-out: Percent Control
# [4] = target: ABL1(E255K)-phosphorylated (Homo sapiens (Human), UniProt P00519, E255K); conditions: 10000 nM, read-out: Percent Control
# MUSK = MUSK (Homo sapiens (Human), UniProt O15146); conditions: 10000 nM, read-out: Percent Control
# TAOK1 = TAOK1 (Homo sapiens (Human), UniProt Q7L7X3); conditions: TAOK1, 10000 nM; read-out: Percent Control
# RIOK3 = RIOK3 (Homo sapiens (Human), UniProt O14730); conditions: RIOK3, 10000 nM; read-out: Percent Control
# CDK8 = CDK8 (Homo sapiens (Human), UniProt P49336); conditions: CDK8, 10000 nM; read-out: Percent Control
# NEK10 = NEK10 (Homo sapiens (Human), UniProt Q6ZWH5); conditions: NEK10, 10000 nM; read-out: Percent Control
# ROS1 = ROS1 (Homo sapiens (Human), UniProt P08922); conditions: ROS1, 10000 nM; read-out: Percent Control
SMILES,remaining binding at 10 µM (p38-gamma) [%],remaining binding at 10 µM (FLT1) [%],remaining binding at 10 µM (NEK3) [%],remaining binding at 10 µM (ASK2) [%],remaining binding at 10 µM [1] [%],remaining binding at 10 µM (RIPK2) [%],remaining binding at 10 µM (MYLK2) [%],remaining binding at 10 µM (DMPK) [%],remaining binding at 10 µM (KIT(V559D)) [%],remaining binding at 10 µM (KIT(D816H)) [%],remaining binding at 10 µM (ROCK1) [%],remaining binding at 10 µM (MST1R) [%],remaining binding at 10 µM (INSR) [%],remaining binding at 10 µM [2] [%],remaining binding at 10 µM (CSNK1E) [%],remaining binding at 10 µM (HIPK4) [%],remaining binding at 10 µM (YSK1) [%],remaining binding at 10 µM (AKT3) [%],remaining binding at 10 µM (ERBB4) [%],remaining binding at 10 µM (SRPK2) [%],further results
"COc1cc(N2CCC(N3CCN(C)CC3)CC2)ccc1Nc1ncc2c(n1)N(C)c1sc(C)nc1C(=O)N2 [Compound 3, 6-((2-methoxy-4-(4-(4-methylpiperazin-1-yl)piperidin-1-yl)phenyl)amino)-2,4-dimethyl-4,9-dihydro-10H-pyrimido[5,4-b]thiazolo[5,4-e][1,4]diazepin-10-one]",67,87,88,100,100,88,84,99,56,22,100,90,83,100,82,82,79,100,57,87,remaining binding at 10 µM (TAK1): 95%; remaining binding at 10 µM (NDR1): 97%; remaining binding at 10 µM (CAMK2G): 79%; remaining binding at 10 µM [3]: 3.9%; remaining binding at 10 µM (CLK4): 76%; remaining binding at 10 µM (PIK3CA(H1047L)): 66%; remaining binding at 10 µM (FES): 81%; remaining binding at 10 µM [4]: 17%; remaining binding at 10 µM (MUSK): 92%; remaining binding at 10 µM (TAOK1): 100%; remaining binding at 10 µM (RIOK3): 79%; remaining binding at 10 µM (CDK8): 78%; remaining binding at 10 µM (NEK10): 100%; remaining binding at 10 µM (ROS1): 74%
"COc1cc(N2CCC(N3CCN(C)CC3)CC2)ccc1Nc1ncc2c(n1)N(C)c1sc(C)nc1C(=O)N2C [Compound 5, 6-((2-methoxy-4-(4-(4-methylpiperazin-1-yl)piperidin-1-yl)phenyl)amino)-2,4,9-trimethyl-4,9-dihydro-10H-pyrimido[5,4-b]thiazolo[5,4-e][1,4]diazepin-10-one]",95,100,100,100,100,95,97,100,100,100,100,100,40,100,100,100,100,100,100,89,remaining binding at 10 µM (TAK1): 100%; remaining binding at 10 µM (NDR1): 98%; remaining binding at 10 µM (CAMK2G): 97%; remaining binding at 10 µM [3]: 54%; remaining binding at 10 µM (CLK4): 85%; remaining binding at 10 µM (PIK3CA(H1047L)): 80%; remaining binding at 10 µM (FES): 97%; remaining binding at 10 µM [4]: 100%; remaining binding at 10 µM (MUSK): 100%; remaining binding at 10 µM (TAOK1): 80%; remaining binding at 10 µM (RIOK3): 99%; remaining binding at 10 µM (CDK8): 100%; remaining binding at 10 µM (NEK10): 94%; remaining binding at 10 µM (ROS1): 75%
